Here are results for three molecules from patent US8273771B2, “Ischemic disorder or disease inhibitors” (Pronas Pharma AB, priority 2007, dated 2012).

Series [1] concerns MCA and BA from rats with induced SAH. In words: Myograph contractile response to 5-CT in cerebral arteries of treated SAH rats. Further details: species or system rat. As to conditions: treatment in vivo, compared to SAH rats; for 5-CT contraction Emax(1) / 5-CT contraction Emax(2), pEC50(1) and pEC50(2): MCA; for 5-CT contraction, first 5-HT1B and second 5-HT2A phases: BA. As to the method:
After 48 hours of observation sham, SAH treated with SB386023-b or treated with the PKC inhibitor RO-31-7549 or U0126 or SAH+vehicle operated rats (see above SAH model) were anaesthetized with CO2 and decapitated. The brains were quickly removed and chilled in ice-cold bicarbonate buffer solution (see composition below). Under a dissection microscope, the middle cerebral artery (MCA), the basilar artery (BA) and circle of Willis were carefully dissected free from the brain and cleared of connective tissue. The MCA and BA were immediately mounted in myographs for in vitro pharmacology or snap frozen at −80° C. and examined by real-time PCR.
In vitro Pharmacology Myograph Experiments For contractile experiments a sensitive myograph was used for recording the isometric tension in isolated cerebral arteries (Hogestatt et al., (1983, Mulvany and Helpern, 1977). The vessels were cut into 1 mm long cylindrical segments and mounted on two 40 μm in diameter stainless steel wires in a Myograph (Danish Myo Technology A/S, Denmark). One wire was connected to a force displacement transducer attached to an analog-digital converter unit (ADInstruments, Oxford, UK). The other wire was connected to a micrometer screw, allowing fine adjustments of vascular tone by varying the distance between the wires. Measurements were recorded on a computer by use of a PowerLab unit (ADInstruments). The segments were immersed in a temperature controlled buffer solution (37° C.) of the following composition (mM) NaCl 119, NaHCO3 15, KCl 4.6, MgCl2 1.2, NaH2PO4 1.2, CaCl2 1.5 and glucose 5.5. The buffer was continuously aerated with oxygen enriched with 5% CO2 resulting in a pH of 7.4. The vessels were stretched to an initial resting tone of 2 mN and then allowed to stabilize at this tone for 1 hour. The contractile capacity was determined by exposing the vessels to an isotonic solution containing 63.5 mM of K+, obtained by partial change of NaCl for KCl in the above buffer. The contraction induced by K+ was used as reference for the contractile capacity. Only vessels responding by contraction of at least 2.0 mN to potassium for BA and 0.8 mN to potassium for MCA were included in the study. The presence of the endothelium was checked by precontracting the vessel using 5-HT (10^−6.5M) (Sigma, St Louis, USA) and subsequently exposing the segments to carbachol (10^−5 M) (Sigma, St Louis, USA). A relaxant response of the precontracted tension was considered indicative of a functional endothelium (Hansen-Schwartz et al., 2003a).
Concentration-response curves were obtained by cumulative application of 5-CT (Sigma, St. Louis, USA) in the concentration range 10^−12 to 10^−5 M, ET-1 (AnaSpec, San Jose, USA) in the concentration range 10^−14 to 10^−7 M and Ang II (Sigma, St. Louis, USA) in the concentration range 10^−12 to 10^−6 M. Before application of Ang II the arteries were pretreated with the AT2 receptor antagonist PD123319 (10^−5.5 M) for 30 minutes (a kind gift from Dr P. Morsing, Astra-Zeneca, Molndal, Sweden).
Data are expressed as mean±standard error of the mean (s.e.m.), and n refers to the number of rats. Statistical analyses were performed with Kruskal-Wallis non-parametric test with Dunn's post-hoc test, where P<0.05 was considered significant. In vitro Pharmacology Contractile responses in each segment are expressed as percentage of the 63.5 mM K+ induced contraction. Emax value represents the maximum contractile response elicited by an agonist and the pEC50 the negative logarithm of the drug concentration that elicited half the maximum response. For biphasic responses, Emax(1) and pEC50(1) describes the high affinity phase and Emax(2) and pEC50(2) describes the low affinity phase.

Another series concerns rats with induced SAH. Kind of series: Physiological parameters in operated SAH rats. Format: in vivo, rat. As to conditions: sham, SAH+vehicle and treated SAH groups. The text has this:
Subarachnoid hemorrhage was induced by a model originally devised by Svendgaard et al and carefully described by Prunell et al (2003). Male Sprague-Dawley rats (350-400 g) were anaesthetized using 5% halothane (Halocarbon Laboratories, River Edge, N.J.) in N2O/O2 (30:70). The rat was intubated and artificially ventilated with inhalation of 0.5-1.5% halothane in N2O/O2 (70:30) during the surgical procedure. The depth of anaesthesia was carefully monitored and the respiration checked by regularly withdrawing arterial blood samples for blood gas analysis (Radiometer, Copenhagen, Denmark). An electric temperature probe was inserted into the rectum of the rat to record the temperature, which was maintained at 37° C. An arterial catheter to measure blood pressure was placed in the tail artery and a catheter to monitor intracranial pressure (ICP) was placed in the subarachnoid space under the subocciptal membrane. At either side of the skull, 3 mm from the midline and 4 mm anteriorly from the bregma, holes were drilled through the skull bone down to dura mater (without perforation) allowing the placement of two laser-Doppler flow probes to measure cortical CBF. Finally, a 27G blunt canula with side hole was introduced 6.5 mm anterior to bregma in the midline at an angle of 30° to the vertical. With the aperture pointing to the right, the needle was lowered until the tip reached the skull base 2 to […] anterior to the chiasma. After 30 minutes of equilibration 250 μl blood was withdrawn from the tail catheter and injected intracranially via this canula at a pressure equal to the mean arterial blood pressure (MABP) (80-100 mmHg). Subsequently the rat was kept under anaesthesia for another 60 minutes to allow recovery from the cerebral insult after which catheters were removed and incisions closed. The rat was then revitalized and extubated. A subcutaneous injection of carprofen (4.0 mg/kg) (Pfizer, Denmark) was administered and the rat was hydrated subcutaneously using […] isotonic sodium chloride at the end of the operation and at day one.

Turning to `N#CC(=C(/N)Sc1ccccc1N)/C(C#N)=C(\N)Sc1ccccc1N` [U0126], in series [1], the “5-CT contraction Emax(1)” value is on record as “significantly reduced”; the “5-CT contraction Emax(2), pEC50(1) and pEC50(2)” value was “tended to decrease”. In addition, the “physiological parameters (MABP, pCO2, pO2, hematocrit, temperature), difference between groups” value in the series with rats with induced SAH is listed as “No statistical difference”.
Take `Cn1cc(C2=C(c3cn(CCCN)c4ccccc34)C(=O)NC2=O)c2ccccc21` [RO-31-7549]: in series [1], the “5-CT contraction, first 5-HT1B and second 5-HT2A phases” value is on record as “downregulated”; the “5-CT contraction Emax(1)” value is “significantly reduced”; the “5-CT contraction Emax(2), pEC50(1) and pEC50(2)” value is on record as “tendency to decrease”. Further, the “physiological parameters (MABP, pCO2, pO2, hematocrit, temperature), difference between groups” value in the series on rats with induced SAH was “No statistical difference”.
For `Oc1cc(-c2nc(-c3ccccc3)[nH]c2-c2ccncc2)ccc1Cl` [SB386023-b], in series [1], the “5-CT contraction, first 5-HT1B and second 5-HT2A phases” value is reported as “downregulated”; the “5-CT contraction Emax(1)” value was “significantly reduced”; the “5-CT contraction Emax(2), pEC50(1) and pEC50(2)” value is recorded as “tended to decrease”. Also, the “physiological parameters (MABP, pCO2, pO2, hematocrit, temperature), difference between groups” value in the series with rats with induced SAH is listed as “No statistical difference”.
